The term MIC denotes the lowest concentration that inhibits growth of the organism. A high value points to weaker potency.

The source of these data is patent US5034517A, “Process for producing 2,6-dideoxy-2-fluoro-L-talopyranose” (priority 1986, dated 1991).

Where two headings read alike, the source gives them in different places.

Series [1] deals with Leukemia L-1210 cells. Briefly: Antitumor activity on leukemia in CDF1 mice caused by Leukemia L-1210 cells (Test 1). The settings on record: for sign of toxicity: 2.5-5 mg/kg/day, in words. How it is done:
Antitumor activity on Leukemia in CDF1 mice caused by Leukemia L-1210 cells
In this test, Compounds of formula (m) were assessed in comparison with daunomycin and adriamycin on their tumor inhibitory activity against leukemia in mice Thus, CDF1 mice were intraperitoneally transplanted with cells of Leukemia L-1210 (1×10^5 cells/mouse). From 24 hours after i.p. transplantation of L-1210 cells, each compound to be tested was administered intraperitoneally for 9 consecutive days at once per day. Observation was made for 60 days where survival days of each mouse tested were recorded, and percentage increase in life-span of the treated mice, in comparison with control test wherein mice were treated only with the administration of physiological saline, was calculated as T/C %, where T is the mean survival days of the treated animals and C is the mean survival days of the untreated control animals.

Series [2] relates to experimental tumors. Conditions: various kinds of tumors; cited from earlier work.
For series [3] the following is noted: patients; cited from earlier work.
In series [4] the test system is Leukemia P 388. The settings on record: cited from earlier work.
Series [5] deals with Leukemia L-1210. The settings on record: 25 mg/kg, single dose per day, intraperitoneally for 9 days; cited from earlier work.
For series [6], the system named is Micrococcus luteus ATCC 9341. As to the kind of experiment: MIC by standard serial dilution method. The format is cell-based. Conditions: ATCC9341; Micrococcus luteus ATCC 9341 (MS-1). The source says:
(§1) Minimum inhibitory concentrations (MIC., mcg/ml) of the new compounds of formulae (h) and (i) against the growth of some species of bacteria have been determined according to a standard serial dilution method.

For series [7], the system named is Salmonella paratyphi 1015. As to the kind of experiment: MIC by standard serial dilution method. The format is cell-based. Conditions: Salmonella enterica.
Text: as §1

The subject of series [8] is some species of bacteria. Briefly: Antibacterial activity. The series is classed as cell-based. Conditions: for antibacterial activity compared with phenol: some species of bacteria; for antibacterial activity: in words.
Series [9] deals with Corynebacterium bovis 1810. As to the kind of experiment: MIC by standard serial dilution method. The format is cell-based.
Text: as §1

A short description of series [10]: Stability of glycoside linkage against acid hydrolysis (Test 2). The series is classed as physicochemical. The settings on record: for acid hydrolysis, TLC result: 61°-62° C.; for acid hydrolysis: 60° C.; for stability of glycoside linkage against hydrolysis by acid: in words, no conditions. How it is done:
Daunomycin (1 mg) was dissolved in a mixture of (0.1 ml) of 0.2N*HCl-80% CH3 CN-H2 O (*the concentration of HCl being 0.2N in the whole mixture) and the solution was heated in oil bath at 61°-62° C. for 30 minutes to cause the hydrolysis. […] The reaction solution was allowed to stand at room temperature to deposit daunomycinone as red crystals.
FTDM (0.7 mg) was suspended in a mixture (0.1 ml) of 0.2N HCl-80% CH3 CN-H2 O and suspension was stirred in an oil bath at 61°-62° C. for 30 minutes.

Series [11] deals with experimental tumors. As to the kind of experiment: Animal tests on experimental tumors. The format is in vivo. Conditions: in words.
The conditions of series [12]: in vivo; cited from earlier work.
Where [13] appears, read: 0.15 mg/kg/day, i.p., once per day for 9 days, 60 days observation.
Setting [14] is: 0.3 mg/kg/day, i.p., once per day for 9 days, 60 days observation.
Setting [15] is: 0.6 mg/kg/day, i.p., once per day for 9 days, 60 days observation.
Where [16] appears, read: 1.25 mg/kg/day, i.p., once per day for 9 days, 60 days observation.
[17] abbreviates: 2.5 mg/kg/day, i.p., once per day for 9 days, 60 days observation.
[18] abbreviates: 5 mg/kg/day, i.p., once per day for 9 days, 60 days observation.
Setting [19] is: 0.2N HCl-80% CH3 CN-H2 O, 30 minutes.

Regarding `COc1cccc2c1C(=O)c1c(O)c3c(c(O)c1C2=O)C[C@@](O)(C(=O)CO)C[C@@H]3O[C@H]1C[C@H](N)[C@H](O)[C@H](C)O1` [Adriamycin, reference compound], the “% Increase in life-span (T/C)” value in series [1] (setting [13]) is 123%; in [1] (setting [14]), 136%; in [1] (setting [15]), 142%; in series [1] (setting [16]), 222%; in series [1] (setting [17]), 228%; in series [1] (setting [18]), 191%. Further, the sign of toxicity entry in [1] was “appearance of toxicity”. Besides, the antitumor activity result in [2] is “fairly high antitumor activity against various kinds of tumors”. Moreover, in series [3], the cardiac toxicity entry is listed as “cardiac toxicity”. Also, the “decrease in the number of leukocytes” value in series [3] is reported as “decrease in the number of leukocytes”. Besides, in series [3], the “falling-off of the hair” value is given as “falling-off of the hair”.
As to `COc1cccc2c1C(=O)c1c(O)c3c(c(O)c1C2=O)C[C@@](O)(C(C)=O)C[C@@H]3O[C@@H]1O[C@@H](C)[C@@H](OC(C)=O)[C@@H](OC(C)=O)[C@H]1I` [Compound NSC 327,472, 7-O-(3,4-di-O-acetyl-2,6-dideoxy-2-iodo-α-L-talohexopyranosyl)daunomycinone], the “increase (%) of survival days” value was 172% in series [4] (12.5 mg/kg to 25 mg/kg) and 162% in series [4] (150 mg/kg).
`COc1cccc2c1C(=O)c1c(O)c3c(c(O)c1C2=O)C[C@@](O)(C(C)=O)C[C@@H]3O[C@@H]1O[C@@H](C)[C@H](OC(C)=O)[C@@H](OC(C)=O)[C@H]1I` [Compound NSC 331,962, 7-O-(3,4-di-O-acetyl-2,6-dideoxy-2-iodo-α-L-manno-hexopyranosyl)daunomycinone]: the “increase (in %) of survival days (T/C, %)” value in series [4] (50 mg/kg) is on record as 247%; in series [5], 196%.
For `CO[C@@H]1O[C@@H](C)[C@@H](O)[C@@H](O)[C@H]1F` [Compound of formula (h), methyl 2,6-dideoxy-2-fluoro-α-L-talopyranoside], the MIC in [6] and in [7] was 100 µg/mL throughout. Besides, the “antibacterial activity compared with phenol” value in series [8] is recorded as “higher antibacterial activity against some species of bacteria than that of phenol”.
`C[C@@H]1OC(O)[C@H](F)[C@H](O)[C@@H]1O` (stereo partly drawn) [Compound of formula (i), 2,6-dideoxy-2-fluoro-α,β-L-talopyranose] registered an MIC in [9] of 100 µg/mL. The compound further yielded an MIC in series [7] of 100 µg/mL. Moreover, in series [8], the antibacterial activity entry is “shows antibacterial activity” and the “antibacterial activity compared with phenol” value is given as “higher antibacterial activity against some species of bacteria than that of phenol”.
As to `COc1cccc2c1C(=O)c1c(O)c3c(c(O)c1C2=O)C[C@@](O)(C(C)=O)C[C@@H]3O[C@@H]1O[C@@H](C)[C@@H](O)[C@@H](O)[C@H]1F` [Compound of formula (k), 7-O-(2,6-dideoxy-2-fluoro-α-L-talopyranosyl)daunomycinone], the sign of toxicity entry in series [1] was “no sign of toxicity”. Besides, the “% Increase in life-span (T/C)” value in series [1] (ip, 0.15 mg/kg) stood at 105%; in series [1] (ip, 0.3 mg/kg) it was 105%; in [1] (ip, 0.6 mg/kg), 125%; in [1] (ip, 1.25 mg/kg), 171%; in series [1] (ip, 2.5 mg/kg), 217%; in series [1] (ip, 5 mg/kg), 184%. The “acid hydrolysis, TLC result” value in series [10] (setting [19]) was “presence of the spot of FTDM only”; in series [10] (0.2N HCl-80% CH3 CN-H2 O, further 3 hours) it was “the spot of FTDM only”; in series [10] (1N HCl overall, 8 hours), “a spot of a trace amount of daumonycinone appeared, but most of FTDM was remaining at it was”. Also, in [10] (1N HCl in acetonitrile-water (4:1), 8 hours), the acid hydrolysis entry is “remains substantially as it is, without being decomposed”. The “stability of glycoside linkage against hydrolysis by acid” value in [10] is reported as “high stability against hydrolysis by acid”. For the same compound, the antibacterial activity entry in [8] was “high antibacterial activities”. Further, the antitumor activity entry in [11] is “excellent antitumor activities”. Besides, in series [11], the toxicity result is recorded as “low toxicities”.
Consider `COc1cccc2c1C(=O)c1c(O)c3c(c(O)c1C2=O)C[C@@](O)(C(=O)CO)C[C@@H]3O[C@@H]1O[C@@H](C)[C@@H](O)[C@@H](O)[C@H]1F` [Compound of formula (l), 7-O-(2,6-dideoxy-2-fluoro-α-L-talopyranosyl)adriamycinone], for which the sign of toxicity result in [1] is “no sign of toxicity”. For the same compound, the “% Increase in life-span (T/C)” value in [1] (ip, 0.15 mg/kg) is reported as 127%; in series [1] (ip, 0.3 mg/kg), 182%; in series [1] (ip, 0.6 mg/kg) it was 185%; in series [1] (ip, 1.25 mg/kg) it was 275%; in series [1] (ip, 2.5 mg/kg) it was greater than 352%; in series [1] (ip, 5 mg/kg) it was greater than 740%. In [10], the “stability of glycoside linkage against hydrolysis by acid” value is recorded as “high stability against hydrolysis by acid”. For the same compound, in series [8], the antibacterial activity entry was “high antibacterial activities”. In addition, the antitumor activity entry in series [11] is “excellent antitumor activities”. The toxicity result in series [11] is reported as “low toxicities”.
`COc1cccc2c1C(=O)c1c(O)c3c(c(O)c1C2=O)C[C@@](O)(C(C)=O)C[C@@H]3O[C@H]1C[C@H](N)[C@H](O)[C@H](C)O1` [Daunomycin, reference compound]: the “% Increase in life-span (T/C)” value in series [1] (setting [13]) is on record as 132%; in series [1] (setting [14]) it was 112%; in series [1] (setting [15]), 145%; in series [1] (setting [16]), 158%; in series [1] (setting [17]) it was 171%; in series [1] (setting [18]) it was 138%. Further, in series [10] (0.2N HCl in acetonitrile-water (4:1), 30 minutes), the acid hydrolysis result is recorded as “completely decomposed”. Also, in [10] (setting [19]), the “acid hydrolysis, TLC result” value is “disappearance of the spot of daunomycin”. In series [2], the antitumor activity entry is “fairly high antitumor activity against various kinds of tumors”.
Take `COc1cccc2c1C(=O)c1c(O)c3c(c(O)c1C2=O)C[C@@](O)(C(=O)CO)C[C@@H]3O` [adriamycinone]: the “cardiac toxicity compared with daunomycin or adriamycin” value in series [12] is given as “higher cardiac toxicity than the daunomycin or adriamycin itself”.
`COc1cccc2c1C(=O)c1c(O)c3c(c(O)c1C2=O)C[C@@](O)(C(C)=O)C[C@@H]3O` [daunomycinone]: the “cardiac toxicity compared with daunomycin or adriamycin” value in [12] was “higher cardiac toxicity than the daunomycin or adriamycin itself”.
